Drawing on US20260285853A1, “COMPOUNDS AND METHODS FOR MODULATING SPLICING” (REMIX THERAPEUTICS INC., priority 2023, published 2026), this text covers GI50, AC50 and IC50 for 15 molecules.

Usually GI50 stands for the concentration that inhibits growth by half. One may read the AC50 as the concentration at which the activity in the assay is half-maximal. A word on the IC50: it is the concentration that gives 50% inhibition.

Common to all, as to assay type: cell-based
Test [1] has as its system SH-SY5Y (human neuroblastoma) cells. As to the kind of experiment: Cell viability, Cell Titer Glo 2.0 assay. The following applies: read-out: Viability SHSY5Y.3 GI50. In outline: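 Steps: serial DMSO dilution of compound, 1:100 dilution into medium, addition to cells (0.1% DMSO final). Incubate 72 h at 37 °C, 5% CO2. Assay with CellTiter-Glo 2.0 reagent.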
Background: In ATP-based viability assays light output follows the ATP content of the culture.

Test [2] deals with HTT mRNA. Description: Splicing RT-qPCR assay (THP), Table 2A. The following applies: Table 2A (THP); for AC50: AJ mRNA increase, read-out: HTT AJ (increase in alternative junction mRNA, AC50); for IC50: CJ mRNA decrease, read-out: HTT CJ (decrease in canonical junction mRNA, IC50). (Quantitative PCR measures a nucleic acid by following its amplification.)
Test [3] concerns MYB mRNA. Description: Splicing RT-qPCR assay (THP), Table 2A. The conditions noted are these: Table 2A (THP); for AC50: AJ mRNA increase, read-out: MYB AJ (increase in alternative junction mRNA, AC50); for IC50: CJ mRNA decrease, read-out: MYB CJ (decrease in canonical junction mRNA, IC50).
Test [4] has as its system HTT mRNA. As to the kind of experiment: Gene panel canonical junction qPCR assay, decrease in CJ mRNA, Table 3. The conditions noted are these: decrease in canonical junction (CJ) mRNA, gene panel qPCR, Table 3. Summed up: (§1)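 IC50 is the concentration giving 50% response in decrease of the canonical junction transcript, fitted with a 4-parameter logistic equation. Transcripts were quantified by RT-qPCR in A673 or K562 cells after 24 h exposure to compounds dosed up to 10 uM in 3-fold steps.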

Test [5] has as its system MYB mRNA. The test is described as above. The conditions noted are these: decrease in canonical junction (CJ) mRNA, gene panel qPCR, Table 3. Summed up:
as §1

Regarding `CCNC1CCN(c2ccc(C(=O)Nc3cc(Oc4ccc(C#N)cc4)c4nc(C)cn4c3)c3nn(C)cc23)CC1` [Compound 352, N-[8-(4-cyanophenoxy)-2-methyl-imidazo[1,2-a]pyridin-6-yl]-4-[4-(ethylamino)-1-piperidyl]-2-methylindazole-7-carboxamide], in test [1], the GI50 fell in the range of 100 to 1000 nM. Further, the AC50 with HTT mRNA [2] is > 10000 nM; in the test with MYB mRNA [3], < 100 nM. Also, the IC50 in the test on HTT mRNA [2] is 1000 to 10000 nM; in the test with MYB mRNA [3], < 100 nM; with HTT mRNA [4], 1000 to 10000 nM; with MYB mRNA [5], < 100 nM.
With `CCNC1CCN(c2ccc(C(=O)Nc3cc(Oc4cccnc4)c4nc(C)cn4c3)c3nn(C)cc23)CC1` [Compound 353, 4-[4-(ethylamino)-1-piperidyl]-2-methyl-N-[2-methyl-8-(3-pyridyloxy)-imidazo[1,2-a]-pyridin-6-yl]-indazole-7-carboxamide], in test [1], the GI50 is > 10000 nM. The AC50 in the test with HTT mRNA [2] lay within 1000 to 10000 nM; in the test on MYB mRNA [3] it was 100 to 1000 nM. For the same molecule, the IC50 fell in the range of 1000 to 10000 nM in the test on HTT mRNA [2], 100 to 1000 nM with MYB mRNA [3], 1000 to 10000 nM in the test with HTT mRNA [4] and 100 to 1000 nM with MYB mRNA [5].
On to `Cc1cn2cc(NC(=O)c3ccc(N4CCC(NC5(C)CC5)CC4)c4cn(C)nc34)cc(F)c2n1` [Compound 355, N-(8-fluoro-2-methyl-imidazo[1,2-a]-pyridin-6-yl)-2-methyl-4-[4-[(1-methyl-cyclopropyl)amino]-1-piperidyl]indazole-7-carboxamide], for which, in test [1], the GI50 lay in the range of 100 to 1000 nM. The values for the AC50 in the test with HTT mRNA [2] and in the test with MYB mRNA [3] were 100 to 1000 nM and < 100 nM, respectively. The IC50 was 100 to 1000 nM with HTT mRNA [2], < 100 nM in the test with MYB mRNA [3], 100 to 1000 nM with HTT mRNA [4] and < 100 nM in the test on MYB mRNA [5].
Regarding `Cc1cn2cc(NC(=O)c3c(F)cc(N4CCC(N(C)C)CC4)c4cn(C)nc34)nc2c(C)n1` [Compound 356, 4-[4-(dimethylamino)-1-piperidyl]-N-(6,8-dimethylimidazo[1,2-a]pyrazin-2-yl)-6-fluoro-2-methyl-indazole-7-carboxamide], in test [1], the GI50 was 1000 to 10000 nM. The AC50 with HTT mRNA [2] is 1000 to 10000 nM; in the test on MYB mRNA [3], < 100 nM. The IC50 in the test on HTT mRNA [2] lay within 1000 to 10000 nM; with MYB mRNA [3], 100 to 1000 nM; in the test with HTT mRNA [4], 1000 to 10000 nM; in the test on MYB mRNA [5] it was 100 to 1000 nM.
As to `CCNC1CCN(c2cc(F)c(C(=O)Nc3cn4cc(C)nc4c(Cl)c3OC)c3nn(C)cc23)CC1` [Compound 357, N-(8-chloro-7-methoxy-2-methylimidazo[1,2-a]pyridin-6-yl)-4-[4-(ethylamino)-1-piperidyl]-6-fluoro-2-methyl-indazole-7-carboxamide], the 50% growth inhibitory concentration (GI50) in test [1] was in the range of 100 to 1000 nM. Also, the results for the AC50 in the test on HTT mRNA [2] and in the test with MYB mRNA [3] were 100 to 1000 nM and < 100 nM, respectively. Also, the IC50 with HTT mRNA [2] is 100 to 1000 nM; in the test with MYB mRNA [3] it was < 100 nM; in the test with HTT mRNA [4], 100 to 1000 nM; in the test on MYB mRNA [5], < 100 nM.
As for `CCNC1CCN(c2ccc(C(=O)Nc3cn4cc(C)nc(CC)c4n3)c3nn(C)cc23)CC1` [Compound 358, 4-[4-(ethylamino)-1-piperidy1]-N-(8-ethyl-6-methyl-imidazo[1,2-a]-pyrazin-2-yl)-2-methyl-indazole-7-carboxamide], the GI50 in test [1] fell in the range of 1000 to 10000 nM. Further, the values for the AC50 in the test on HTT mRNA [2] and with MYB mRNA [3] were 1000 to 10000 nM and 100 to 1000 nM, respectively. Moreover, the IC50 with HTT mRNA [2], in the test with MYB mRNA [3], with HTT mRNA [4] and in the test on MYB mRNA [5] was 1000 to 10000 nM each time.
In the case of `CCNC1CCN(c2cc(F)c(C(=O)Nc3cn4cc(C#N)nc(C)c4n3)c3nn(C)cc23)CC1` [Compound 359, N-(6-cyano-8-methyl-imidazo-[1,2-a]pyrazin-2-yl)-4-[4-(ethylamino)-1-piperidyl]-6-fluoro-2-methyl-indazole-7-carboxamide], the GI50 in test [1] is 100 to 1000 nM. The AC50 in the test with HTT mRNA [2] and in the test on MYB mRNA [3] was 100 to 1000 nM throughout. Besides, the IC50 with HTT mRNA [2], with MYB mRNA [3], with HTT mRNA [4] and in the test on MYB mRNA [5] was 100 to 1000 nM in each case.
Turning to `CCNC1CCN(c2ccc(C(=O)Nc3cc(-n4ccc(=O)cc4)c4nc(C)cn4c3)c3nn(C)cc23)CC1` [Compound 360, 4-(4-(ethylamino)piperidin-1-yl)-2-methyl-N-(2-methyl-8-(4-oxopyridin-1-(4H)-yl)imidazo[1,2-a]-pyridin-6-yl)-2H-indazole-7-carboxamide], the GI50 in test [1] was 1000 to 10000 nM. The AC50 with HTT mRNA [2] and in the test with MYB mRNA [3] was 1000 to 10000 nM in each case. The IC50 in the test with HTT mRNA [2], in the test on MYB mRNA [3], in the test on HTT mRNA [4] and with MYB mRNA [5] was 1000 to 10000 nM in each case.
Regarding `Cc1cn2cc(NC(=O)c3ncc(N4CCC(NC5CC5)CC4)c4cn(C)nc34)cc(F)c2n1` [Compound 361, 4-[4-(cyclopropylamino)-1-piperidyl]-N-(8-fluoro-2-methyl-imidazo[1,2-a]pyridin-6-yl)-2-methyl-pyrazolo[3,4-c]pyridine-7-carboxamide], the GI50 in test [1] fell in the range of 1000 to 10000 nM. Besides, the AC50 lay within 1000 to 10000 nM in the test on HTT mRNA [2] and 100 to 1000 nM with MYB mRNA [3]. Moreover, the IC50 with HTT mRNA [2] was > 10000 nM; with MYB mRNA [3], 100 to 1000 nM; with HTT mRNA [4] it was > 10000 nM; with MYB mRNA [5] it was 100 to 1000 nM.
With `CCNC1CCN(c2cc(F)c(C(=O)Nc3cn4cc(C)nc(CC)c4n3)c3nn(C)cc23)CC1` [Compound 362, 4-[4-(ethylamino)-1-piperidyl]-N-(8-ethyl-6-methyl-imidazo[1,2-a]pyrazin-2-yl)-6-fluoro-2-methyl-indazole-7-carboxamide], the GI50 in test [1] is 1000 to 10000 nM. Also, the results for the AC50 with HTT mRNA [2] and with MYB mRNA [3] were > 10000 nM and < 100 nM, respectively. Further, the half-inhibitory concentration (IC50) in the test with HTT mRNA [2] was > 10000 nM; with MYB mRNA [3], 100 to 1000 nM; in the test on HTT mRNA [4], > 10000 nM; in the test on MYB mRNA [5] it was 100 to 1000 nM.
Regarding `CCNC1CCN(c2ccc(C(=O)Nc3ccn(-c4ccncn4)n3)c3nn(C)cc23)CC1` [Compound 363, 4-(4-(ethylamino)-piperidin-1-yl)-2-methyl-N-(1-(pyrimidin-4-yl)-1H-pyrazol-3-yl)-2H-indazole-7-carboxamide 2,2,2-trifluoroacetate], the GI50 in test [1] is > 10000 nM. The AC50 in the test on HTT mRNA [2] and in the test with MYB mRNA [3] was > 10000 nM each time. The IC50 in the test with HTT mRNA [2], with MYB mRNA [3], in the test with HTT mRNA [4] and in the test on MYB mRNA [5] was > 10000 nM in each case.
With `CCNC1CCN(c2cc(F)c(C(=O)Nc3cn4cc(C)nc4c(N)c3OC)c3nn(C)cc23)CC1` [Compound 364, N-(8-amino-7-methoxy-2-methyl-imidazo[1,2-a]-pyridin-6-yl)-4-[4-(ethylamino)-1-piperidyl]-6-fluoro-2-methyl-indazole-7-carboxamide], the GI50 in test [1] lay within 1000 to 10000 nM. The half-maximal activity concentration (AC50) was 100 to 1000 nM in the test on HTT mRNA [2] and < 100 nM in the test with MYB mRNA [3]. For the same molecule, the IC50 with HTT mRNA [2] is 1000 to 10000 nM; in the test on MYB mRNA [3] it was 100 to 1000 nM; with HTT mRNA [4], 1000 to 10000 nM; with MYB mRNA [5] it was < 100 nM.
For `CCNC1CCN(c2ccc(C(=O)Nc3cc(Oc4ccccn4)c4nc(C)cn4c3)c3nn(C)cc23)CC1` [Compound 365, 4-[4-(ethylamino)-1-piperidyl]-2-methyl-N-[2-methyl-8-(2-pyridyloxy)-imidazo[1,2-a]pyridin-6-yl]indazole-7-carboxamide], the 50% growth inhibitory concentration (GI50) in test [1] was > 10000 nM. The AC50 in the test with HTT mRNA [2] was > 10000 nM; with MYB mRNA [3], 1000 to 10000 nM. The IC50 is > 10000 nM with HTT mRNA [2], 1000 to 10000 nM in the test on MYB mRNA [3], > 10000 nM in the test on HTT mRNA [4] and 1000 to 10000 nM in the test on MYB mRNA [5].
For the molecule `CCNC1CCN(c2ccc(C(=O)Nc3cc(-n4ccccc4=O)c4nc(C)cn4c3)c3nn(C)cc23)CC1` [Compound 366, 4-[4-(ethylamino)-1-piperidyl]-2-methyl-N-[2-methyl-8-(2-oxo-1-pyridyl)imidazo[1,2-a]pyridin-6-yl]indazole-7-carboxamide], the GI50 in test [1] was > 10000 nM. Moreover, the AC50 in the test with HTT mRNA [2] and in the test on MYB mRNA [3] was > 10000 nM throughout. The IC50 in the test on HTT mRNA [2], in the test on MYB mRNA [3], in the test with HTT mRNA [4] and in the test with MYB mRNA [5] was > 10000 nM each time.
For `COc1c(NC(=O)c2c(F)cc(N3CC[C@H](NC4CC4)C4(CC4)C3)c3cn(C)nc23)cn2cc(C)nc2c1F` [Compound 367, 4-[(8S)-8-(cyclopropylamino)-5-azaspiro[2.5]octan-5-yl]-6-fluoro-N-(8-fluoro-7-methoxy-2-methyl-imidazo[1,2-a]pyridin-6-yl)-2-methyl-indazole-7-carboxamide], the GI50 in test [1] fell in the range of 100 to 1000 nM. For the same molecule, the AC50 was 1000 to 10000 nM in the test on HTT mRNA [2] and < 100 nM with MYB mRNA [3]. Further, the IC50 in the test on HTT mRNA [2] is 1000 to 10000 nM; in the test on MYB mRNA [3] it was < 100 nM; in the test with HTT mRNA [4], 1000 to 10000 nM; in the test on MYB mRNA [5], < 100 nM.
